Measurements published in PubChem BioAssay AID330 (DTP/NCI, 2004).
Where “and” joins values, the source holds several entries; their conditions need not be identical. Equal entries are not always repeated. Toxic doses and inconclusive results are not listed.

Test system: P388 leukemia ip, CD2F1 mice, survival T/C
Experiment: NCI In Vivo Anticancer Drug Screen. Data for tumor model P388 Leukemia (intraperitoneal) in CD2F1 (CDF1) mice
Details: endpoint: median survival time, higher = longer survival
Procedure, shortened: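 Mice carrying the transplanted tumor received test compound or vehicle. Survival was recorded in each group, and the value is the treated-group measurement divided by that of the vehicle-treated control group.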

[1] = dose: 6.25 mg/kg/injection, schedule: Q01DX009 (ip), vehicle: saline
[2] = dose: 12.5 mg/kg/injection, schedule: Q01DX009 (ip), vehicle: saline
[3] = dose: 50.0 mg/kg/injection, schedule: Q01DX005 (ip), vehicle: saline with Tween-80
[4] = dose: 100.0 mg/kg/injection, schedule: Q01DX005 (ip), vehicle: saline with Tween-80
[5] = dose: 200.0 mg/kg/injection, schedule: Q01DX005 (ip), vehicle: saline with Tween-80

With O=P1(N(CCCl)CCCl)NCCCO1 (configuration not stated) the T/C (dose: 4.0 mg/kg/injection, schedule: Q01DX009 (ip), vehicle: saline) was 116 % of control and 122 % of control, the T/C [1] was 150 % of control and 151 % of control and the T/C (dose: 8.0 mg/kg/injection, schedule: Q01DX009 (ip), vehicle: saline) was 150 % of control. The T/C (dose: 10.0 mg/kg/injection, schedule: Q04DX003 (iv), vehicle: saline) was 119 % of control, the T/C [2] was 153 % of control and 185 % of control and 192 % of control and the T/C (dose: 15.0 mg/kg/injection, schedule: Q04DX003 (ip), vehicle: saline) was 150 % of control. For the same compound, the T/C (dose: 16.0 mg/kg/injection, schedule: Q01DX009 (ip), vehicle: saline) was 183 % of control and 188 % of control, the T/C (dose: 16.2 mg/kg/injection, schedule: Q04DX003 (ip), vehicle: saline) was 153 % of control and the T/C (dose: 20.0 mg/kg/injection, schedule: Q01DX009 (ip), vehicle: saline) was 187 % of control. For the same compound, the T/C (dose: 20.0 mg/kg/injection, schedule: Q04DX003 (ip), vehicle: water) was 164 % of control, the T/C (dose: 20.0 mg/kg/injection, schedule: Q04DX003 (iv), vehicle: saline) was 158 % of control and the T/C (dose: 22.2 mg/kg/injection, schedule: Q01DX009 (ip), vehicle: saline) was 213 % of control. For the same compound, the T/C (dose: 25.0 mg/kg/injection, schedule: Q04DX003 (ip), vehicle: water) was 110 % of control, the T/C (dose: 27.0 mg/kg/injection, schedule: Q04DX003 (ip), vehicle: saline) was 178 % of control and the T/C (dose: 28.8 mg/kg/injection, schedule: Q01DX005 (ip), vehicle: saline) was 190 % of control. The T/C (dose: 30.0 mg/kg/injection, schedule: Q01DX010 (ip), vehicle: water) was 272 % of control, the T/C (dose: 30.0 mg/kg/injection, schedule: Q04DX003 (ip), vehicle: saline) was 195 % of control and the T/C (dose: 31.3 mg/kg/injection, schedule: Q01DX001 (iv), vehicle: saline) was 174 % of control. For the same compound, the T/C (dose: 32.4 mg/kg/injection, schedule: Q04DX002 (ip), vehicle: saline) was 163 % of control and 178 % of control, the T/C (dose: 33.3 mg/kg/injection, schedule: Q01DX009 (ip), vehicle: saline) was 261 % of control and the T/C (dose: 36.0 mg/kg/injection, schedule: Q01DX009 (ip), vehicle: saline) was 258 % of control. The T/C (dose: 38.9 mg/kg/injection, schedule: Q04DX003 (ip), vehicle: saline) was 227 % of control, the T/C (dose: 40.0 mg/kg/injection, schedule: Q04DX003 (ip), vehicle: saline) was 197 % of control and 204 % of control and the T/C (dose: 40.0 mg/kg/injection, schedule: Q04DX003 (ip), vehicle: water) was 225 % of control. The T/C (dose: 40.0 mg/kg/injection, schedule: Q04DX003 (iv), vehicle: saline) was 203 % of control, the T/C (dose: 45.0 mg/kg/injection, schedule: Q01DX010 (ip), vehicle: water) was 240 % of control and the T/C (dose: 45.0 mg/kg/injection, schedule: Q04DX003 (ip), vehicle: saline) was 324 % of control. For the same compound, the T/C (dose: 48.0 mg/kg/injection, schedule: Q01DX005 (ip), vehicle: saline) was 240 % of control, the T/C (dose: 48.0 mg/kg/injection, schedule: Q01DX009 (ip), vehicle: saline) was 118 % of control and the T/C (dose: 50.0 mg/kg/injection, schedule: Q01DX001 (ip), vehicle: water) was 157 % of control and 160 % of control. For the same compound, the T/C (dose: 50.0 mg/kg/injection, schedule: Q01DX009 (ip), vehicle: water) was 103 % of control, the T/C (dose: 50.0 mg/kg/injection, schedule: Q04DX003 (ip), vehicle: water) was 198 % of control and 214 % of control and the T/C (dose: 54.0 mg/kg/injection, schedule: Q04DX002 (ip), vehicle: saline) was 209 % of control and 213 % of control. The T/C (dose: 60.0 mg/kg/injection, schedule: Q01DX009 (ip), vehicle: saline) was 99 % of control, the T/C (dose: 60.0 mg/kg/injection, schedule: Q04DX003 (ip), vehicle: saline) was 274 % of control and the T/C (dose: 62.5 mg/kg/injection, schedule: Q01DX001 (iv), vehicle: saline) was 220 % of control. For the same compound, the T/C (dose: 64.0 mg/kg/injection, schedule: Q01DX009 (ip), vehicle: saline) was 187 % of control and 194 % of control, the T/C (dose: 64.8 mg/kg/injection, schedule: Q04DX003 (ip), vehicle: saline) was 317 % of control and the T/C (dose: 70.0 mg/kg/injection, schedule: Q04DX003 (ip), vehicle: saline) was 225 % of control. The T/C (dose: 73.0 mg/kg/injection, schedule: Q04DX003 (ip), vehicle: saline) was 300 % of control, the T/C (dose: 75.0 mg/kg/injection, schedule: Q01DX009 (ip), vehicle: saline) was 157 % of control and the T/C (dose: 75.0 mg/kg/injection, schedule: Q01DX010 (ip), vehicle: water) was 118 % of control. For the same compound, the T/C (dose: 75.0 mg/kg/injection, schedule: Q04DX003 (ip), vehicle: saline) was 358 % of control, the T/C (dose: 80.0 mg/kg/injection, schedule: Q01DX001 (ip), vehicle: saline) was 155 % of control and the T/C (dose: 80.0 mg/kg/injection, schedule: Q04DX003 (ip), vehicle: saline) was 216 % of control and 284 % of control. For the same compound, the T/C (dose: 80.0 mg/kg/injection, schedule: Q04DX003 (ip), vehicle: water) was 269 % of control, the T/C (dose: 80.0 mg/kg/injection, schedule: Q04DX003 (iv), vehicle: saline) was 194 % of control and the T/C (dose: 90.0 mg/kg/injection, schedule: Q04DX002 (ip), vehicle: saline) was 220 % of control and 228 % of control. For the same compound, the T/C (dose: 100.0 mg/kg/injection, schedule: Q01DX001 (ip), vehicle: water) was 199 % of control and 221 % of control, the T/C (dose: 100.0 mg/kg/injection, schedule: Q04DX003 (ip), vehicle: water) was 288 % of control and 324 % of control and the T/C (dose: 108.0 mg/kg/injection, schedule: Q04DX003 (ip), vehicle: saline) was 152 % of control. The T/C (dose: 119.0 mg/kg/injection, schedule: Q01DX001 (ip), vehicle: saline) was 245 % of control, the T/C (dose: 125.0 mg/kg/injection, schedule: Q01DX001 (iv), vehicle: saline) was 350 % of control and the T/C (dose: 125.0 mg/kg/injection, schedule: Q04DX003 (ip), vehicle: saline) was 189 % of control and 196 % of control. The T/C (dose: 150.0 mg/kg/injection, schedule: Q04DX002 (ip), vehicle: saline) was 394 % of control and 409 % of control, the T/C (dose: 150.0 mg/kg/injection, schedule: Q## X001 (ip), vehicle: saline) was 111 % of control and 231 % of control and 260 % of control and the T/C (dose: 160.0 mg/kg/injection, schedule: Q01DX001 (ip), vehicle: saline) was 114 % of control and 232 % of control. For the same compound, the T/C (dose: 165.0 mg/kg/injection, schedule: Q04DX003 (ip), vehicle: saline) was 221 % of control, the T/C (dose: 180.0 mg/kg/injection, schedule: Q04DX003 (ip), vehicle: saline) was 118 % of control and the T/C (dose: 200.0 mg/kg/injection, schedule: Q01DX001 (ip), vehicle: water) was 281 % of control and 291 % of control. The T/C (dose: 250.0 mg/kg/injection, schedule: Q01DX001 (ip), vehicle: saline) was 98 % of control, the T/C (dose: 250.0 mg/kg/injection, schedule: Q01DX001 (iv), vehicle: saline) was 353 % of control and the T/C (dose: 320.0 mg/kg/injection, schedule: Q01DX001 (ip), vehicle: saline) was 215 % of control and 252 % of control. For the same compound, the T/C (dose: 600.0 mg/kg/injection, schedule: Q01DX001 (ip), vehicle: water) was 100 % of control.

With COc1cc(COC(=O)Nc2ccccc2F)cc(OC)c1OC the T/C [3] was 93 % of control, the T/C [4] was 101 % of control and the T/C [5] was 92 % of control.

O=c1nc2ccccc2c2n1CCN2 was tested, and the T/C [3] was 105 % of control, the T/C [4] was 101 % of control and the T/C [5] was 100 % of control.

In the case of COc1ccc(CS(=O)CC(N)C(=O)O)cc1 (configuration not stated), the T/C (dose: 100.0 mg/kg/injection, schedule: Q04DX002 (ip), vehicle: saline with Tween-80) is reported as 98 % of control, the T/C (dose: 200.0 mg/kg/injection, schedule: Q04DX002 (ip), vehicle: saline with Tween-80) is reported as 104 % of control and the T/C (dose: 400.0 mg/kg/injection, schedule: Q04DX002 (ip), vehicle: saline with Tween-80) is reported as 86 % of control.

CCCC(=O)C#C[Si](C)(C)C was tested, and the T/C [3] was 103 % of control and the T/C [4] was 103 % of control.

In the case of CCCC1OP(=O)(N2CC(C)N(P3(=O)OCC(CC)C(CCC)O3)CC2C)OCC1CC (configuration not stated), the T/C (dose: 50.0 mg/kg/injection, schedule: Q01DX005 (ip), vehicle: Klucel (hydroxypropylcellulose) (HPC)) is reported as 90 % of control and the T/C (dose: 100.0 mg/kg/injection, schedule: Q01DX005 (ip), vehicle: Klucel (hydroxypropylcellulose) (HPC)) is reported as 101 % of control.

In the case of COc1cc(-c2ccc(Nc3ccccc3C(=O)O)c(OC)c2)ccc1N, the T/C (dose: 50.0 mg/kg/injection, schedule: Q04DX003 (ip), vehicle: saline with Tween-80) is reported as 110 % of control, the T/C (dose: 100.0 mg/kg/injection, schedule: Q04DX003 (ip), vehicle: saline with Tween-80) is reported as 150 % of control and the T/C (dose: 132.0 mg/kg/injection, schedule: Q04DX003 (ip), vehicle: saline with Tween-80) is reported as 104 % of control.

CC(=O)SC12CCCN1C(=O)C1(SC(C)=O)CCCN1C2=O (configuration not stated) was tested, and the T/C [1] was 98 % of control, the T/C [2] was 104 % of control and the T/C (dose: 25.0 mg/kg/injection, schedule: Q01DX009 (ip), vehicle: saline) was 104 % of control. The T/C (dose: 50.0 mg/kg/injection, schedule: Q01DX009 (ip), vehicle: saline) was 103 % of control and the T/C (dose: 100.0 mg/kg/injection, schedule: Q01DX009 (ip), vehicle: saline) was 111 % of control.

For NC(=O)C(Br)(Br)C(=O)c1nc(N)nc(N)n1, the T/C [3] was 107 % of control and the T/C [4] was 99 % of control.
